# Data as given in US8354447B2, “mGLU receptors antagonists for treating disorders associated with mGLU receptors including addiction and depression” (The Scripps Research Institute, priority 2002, dated 2013).
# Where a name gives a salt, the structure may show the parent alone. Read-outs that look alike come from different tables or passages of the source.
# Columns and labels:
# [1] = target: T1, dopamine transporter (Homo sapiens, UniProt Q01959); settings: therapeutically effective doses, humans (Meyer et al. 2002); cited from earlier work
# T1 construct: host or cells: living human brain (in vivo imaging)
# [2] = system: male Wistar rats; test: ICSS thresholds during and after withdrawal from chronic nicotine, bupropion; type: in vivo, rat
# Description: Trials began with an electrical stimulus followed by a 7.5-s response window within which the animal could make a response to receive a second contingent stimulus identical to the initial noncontingent stimulus. A response during this 7.5-s window was considered a positive response, whereas the lack of a response was considered a negative response. Additional responses during a 2-s period immediately following a positive response had no consequence. The intertrial interval (ITI) that followed either a positive response or the end of the response window (in the case of a negative response) ranged from 7.5 to 12.5 s with an average duration of 10 s. […] Subjects then were tested on a current-threshold procedure in which stimulus intensities were varied during four alternating descending and ascending series with a step size of […]. Blocks of three trials were offered at each current step with the starting current of the first descending series set at […] above the subjects' individual baseline thresholds estimated at the end of preliminary training. […] An ascending series was terminated after two consecutive blocks of trials during which the animal made positive responses on at least two out of the three trials or after 15 successive increments were presented. The mean of the four current thresholds from the alternating series was defined as the subject's ICSS threshold for that session. A series was terminated after either 15 stimulus increments (or decrements) had occurred, or after the determination of the threshold for the series (see below). Each test session typically lasted 30 min.
# Naive animals were prepared with osmotic minipumps containing either an individualized nicotine solution (3.16 mg/kg per day, free base) or saline. […] After implantation of the minipumps, thresholds were assessed daily thereafter to assess the effects of chronic nicotine exposure on reward thresholds. Seven days (exactly seven 24-h periods) after pump insertion, the pumps were removed in order to precipitate the nicotine withdrawal syndrome. ICSS thresholds were measured 12, 18, 24, 36, 48 and 72 h after pump removal. Animals were injected with bupropion (0, 10, 20, 40 mg/kg IP; n=8-11) 30 min prior to the 18-h time point.
# [3] = system: male Wistar rats; test: ICSS reward thresholds under baseline conditions, bupropion; type: in vivo, rat; settings: bupropion 10-60 mg/kg IP, all doses tested, dose-dependent up to 40 mg/kg
# Protocol: For each quarter turn, subjects received a 500 ms train of 0.1 ms cathodal square wave pulses at a frequency of 100 Hz. After successful acquisition of the response, defined as 200 consecutive reinforcements within allotted time period (usually <20 min) subjects were trained on a modification of the Kornetsky and Esposito discrete-trial currentthreshold procedure (Kornetsky and Esposito 1979), as described previously by Markou and Koob (1992).
# Trials began with an electrical stimulus followed by a 7.5-s response window within which the animal could make a response to receive a second contingent stimulus identical to the initial noncontingent stimulus. A response during this 7.5-s window was considered a positive response, whereas the lack of a response was considered a negative response. Additional responses during a 2-s period immediately following a positive response had no consequence. The intertrial interval (ITI) that followed either a positive response or the end of the response window (in the case of a negative response) ranged from 7.5 to 12.5 s with an average duration of 10 s. […] Subjects then were tested on a current-threshold procedure in which stimulus intensities were varied during four alternating descending and ascending series with a step size of 5 mA. […]
# [4] = system: male Wistar rats
# Description: Trials began with an electrical stimulus followed by a 7.5-s response window within which the animal could make a response to receive a second contingent stimulus identical to the initial noncontingent stimulus. A response during this 7.5-s window was considered a positive response, whereas the lack of a response was considered a negative response. Additional responses during a 2-s period immediately following a positive response had no consequence. The intertrial interval (ITI) that followed either a positive response or the end of the response window (in the case of a negative response) ranged from 7.5 to 12.5 s with an average duration of 10 s. […] Subjects then were tested on a current-threshold procedure in which stimulus intensities were varied during four alternating descending and ascending series with a step size of 5 mA. Blocks of three trials were offered at each current step with the starting current of the first descending series set at 30-40 mA above the subjects' individual baseline thresholds estimated at the end of preliminary training. […] An ascending series was terminated after two consecutive blocks of trials during which the animal made positive responses on at least two out of the three trials or after 15 successive increments were presented. The mean of the four current thresholds from the alternating series was defined as the subject's ICSS threshold for that session. A series was terminated after either 15 stimulus increments (or decrements) had occurred, or after the determination of the threshold for the series (see below). Each test session typically lasted 30 min.
# [5] = system: male Wistar rats; test: Somatic signs of the nicotine withdrawal syndrome; type: in vivo, rat; settings: for total number of somatic signs: 24 h post pump removal, 12.5 h postbupropion
# Protocol: Rats were placed individually in transparent plastic cylindrical containers (30×38 cm) in which they could move freely. Subjects were habituated to the containers for 10 min each day over 3 days before the first test session. During the test sessions the rats were observed blindly by an experienced observer for 10 min and the frequency of the following signs was recorded based on a checklist of nicotine abstinence signs (Hildebrand et al. 1999; Watkins et al. 2000; Malin 2001): body shakes, chews, cheek tremors, escape attempts, eye blinks, foot licks, gasps, genital licks, head shakes, ptosis, scratches, teeth chattering, writhes and yawns. Multiple successive counts of any sign required a distinct pause between episodes. Ptosis, if present continuously, was only counted once per minute. For statistical analyses, the total number of somatic signs was defined as the sum of individual occurrences of the above mentioned withdrawal signs. Further, the categories of “abdominal constrictions” included gasps and writhes; “facial fasciculation” included cheek tremors, chews, and teeth chattering; and “miscellaneous other signs” included shakes, escape attempts, licks, scratches, and yawns.
# Separate drug-naive rats were prepared with osmotic minipumps containing nicotine (3.16 mg/kg per day for 7 days) dissolved in saline. […] Further, this nicotine dose was selected to allow direct comparison of the effects of bupropion on somatic signs (present experiment 4) and on reward threshold elevations (experiment 3 described above) observed during nicotine withdrawal. To induce the somatic signs of nicotine withdrawal the minipumps were removed 6 days and 18 h after implantation. The behavioral observations were conducted 6, 12 and 24 h after the removal of the minipumps. The rats were injected with bupropion (0, 5, 10, 20, 40 mg/kg, IP; n=6-8), 30 min prior to the 12-h time point. The selection of the time points was based on the time-course of the expression of the somatic signs after the termination of nicotine exposure (Epping-Jordan et al. 1998; Harrison et al. 2001a; Semenova and Markou 2003; Skjei and Markou 2003).
# [6] = system: rats; settings: 28-day treatment, 20 mg/kg (McCarter and Kokkinidis 1988); cited from earlier work
# T1 sequence (Q01959 whole entry): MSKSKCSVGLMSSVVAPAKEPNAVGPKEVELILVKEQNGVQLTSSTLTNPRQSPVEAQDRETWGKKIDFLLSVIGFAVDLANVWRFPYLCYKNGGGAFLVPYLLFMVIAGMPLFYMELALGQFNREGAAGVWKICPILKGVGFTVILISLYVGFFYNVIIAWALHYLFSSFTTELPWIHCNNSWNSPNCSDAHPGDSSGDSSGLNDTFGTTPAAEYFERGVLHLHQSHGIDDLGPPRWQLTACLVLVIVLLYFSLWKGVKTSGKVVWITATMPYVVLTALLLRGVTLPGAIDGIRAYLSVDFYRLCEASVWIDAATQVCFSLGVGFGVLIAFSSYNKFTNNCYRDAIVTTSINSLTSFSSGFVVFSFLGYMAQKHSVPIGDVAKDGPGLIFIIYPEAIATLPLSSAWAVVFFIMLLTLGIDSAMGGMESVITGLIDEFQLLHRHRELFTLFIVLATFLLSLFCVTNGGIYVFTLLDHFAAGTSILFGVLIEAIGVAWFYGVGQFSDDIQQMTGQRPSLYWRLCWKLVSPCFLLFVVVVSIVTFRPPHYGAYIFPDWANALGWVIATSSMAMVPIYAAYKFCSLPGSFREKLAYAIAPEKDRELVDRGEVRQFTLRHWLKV
smiles,measurement,setting,value
"CC(NC(C)(C)C)C(=O)c1cccc(Cl)c1 (stereo not drawn) [bupropion, Bupropion hydrochloride]",occupancy at the dopamine transporter,[1],22%
same,"area under the curve of the threshold data, 72-h withdrawal period","[2]; bupropion 40 mg/kg, nicotine-pretreated animals",completely reversed
same,reward thresholds,"[2]; bupropion 40 mg/kg, nicotine-pretreated animals, 24 h time point",still exhibited a significant (P<0.001) reduction in reward thresholds
same,reward thresholds,"[2]; bupropion 10, 20, 40 mg/kg, thirty minutes after administration (18-h time point), nicotine- or saline-pretreated",significant and dose-dependent lowering of reward thresholds at all doses
same,reduction in threshold,"[2]; bupropion, saline pretreated animals, 24 h",short-lived and completely reversed at the next time point tested
same,brain reward thresholds,[3],lowered brain reward thresholds compared to the vehicle conditions
same,brain reward thresholds,[4]; bupropion 5 mg/kg alone,without effect on reward thresholds when given alone
same,reward-enhancing effects of acute nicotine,[4]; bupropion 5 mg/kg with nicotine 0.25 mg/kg,completely reversed the reward-enhancing effects of acute nicotine
same,brain reward thresholds,[4]; bupropion 10 and 20 mg/kg in combination with nicotine 0.25 mg/kg,resulted in threshold lowerings that were not significantly different from threshold lowerings induced by nicotine administration alone
same,brain reward thresholds,"[4]; bupropion 10 and 20 mg/kg, saline co-treated",lowered brain reward thresholds in animals that were co-treated with saline
same,long-term effect on somatic signs,"[5]; acute bupropion, 12.5 h",has no long-term (12.5 h) effect on the expression of the somatic signs of nicotine withdrawal
same,total number of somatic signs,[5]; bupropion 5 mg/kg,18.6±4
same,total number of somatic signs,[5]; bupropion 10 mg/kg,17.1±4.6
same,total number of somatic signs,[5]; bupropion 20 mg/kg,14.1±2.2
same,total number of somatic signs,[5]; bupropion 40 mg/kg,14.6±2.6
same,abdominal constrictions (writhes and gasps),"[5]; bupropion 10-40 mg/kg, 12-h withdrawal time point",reversed the withdrawal-induced increase in abdominal constrictions
same,total somatic signs,"[5]; bupropion 20-40 mg/kg, 30 min prior to the 12-h withdrawal timepoint",resulted in a reversal of the expression of total somatic signs
same,rate of responding for ICSS,[6],had no effect on the rate of responding for ICSS
